Data on two compounds can be found in patent US11549123B2, “Plant EPSP synthases and methods of use” (PIONEER HI-BRED INTERNATIONAL, INC., priority 2015, dated 2023).

The structures appear in SMILES notation. Where “and” joins values, the source holds several entries; their conditions need not be identical. Equal entries are not always repeated.

Experiment [1] has as its target T1, Zea mays EPSPS, native, SEQ ID NO:2 (Zea mays, UniProt O24566).
T1 construct: E. coli BL21(DE3), Ni-NTA purified
T1 sequence (O24566 with tags, fused parts or gaps): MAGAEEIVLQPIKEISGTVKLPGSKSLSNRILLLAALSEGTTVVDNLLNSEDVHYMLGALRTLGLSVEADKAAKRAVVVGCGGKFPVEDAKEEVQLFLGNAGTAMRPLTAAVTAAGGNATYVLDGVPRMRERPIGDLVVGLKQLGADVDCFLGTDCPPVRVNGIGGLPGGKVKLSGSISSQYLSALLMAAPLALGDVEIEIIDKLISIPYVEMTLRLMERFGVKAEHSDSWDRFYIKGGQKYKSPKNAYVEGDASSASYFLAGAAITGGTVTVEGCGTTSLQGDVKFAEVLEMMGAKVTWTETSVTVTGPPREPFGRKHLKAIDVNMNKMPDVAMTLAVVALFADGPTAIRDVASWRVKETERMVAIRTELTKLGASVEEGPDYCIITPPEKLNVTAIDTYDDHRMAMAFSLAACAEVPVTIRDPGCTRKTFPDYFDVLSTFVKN
As to the kind of experiment: Substrate saturation analysis with glyphosate (Example 8, global fit to competitive inhibition), native maize. Format: biochemical. An excerpt:
Generally, (kcat/KM)*KI is obtained by performing substrate saturation analysis in the absence and presence of inhibitor. However, that analysis takes longer. […] To validate the method, (kcat/KM)*KI was quantified using both methods—traditional (saturation) and the instant method (rapid), for variants of maize 5-enolpyruvylshikimate-3-phosphate synthase (EPSPS) and its competitive inhibitor, glyphosate.
The amino acid sequence of mature Zea mays EPSPS was obtained from GenBank entry CAA44974.1 (SEQ ID NO:2). A nucleotide sequence was created to add an N-terminal methionine and to optimize codon usage for expression in E. coli. The synthesized gene was cloned into an expression vector that provides a T7 promoter driving expression of the protein and a 10× N-terminal histidine tag. Variants selected for this study include native maize EPSPS and variants generated by a gene shuffling cascade described herein. The proteins were expressed in E. coli BL21(DE3) and purified by Ni-NTA resin (Qiagen). Protein concentration was determined by absorbance at 280 nm using an extinction coefficient of 0.676 OD/mg/m L. The proteins were normalized to 0.5 mg/mL for assay.
EPSPS activity was determined by quantifying the phosphate generated by the reaction. Release of phosphate was coupled to reaction with MESG, catalyzed by purine-nucleoside phosphorylase, using standard methods. The absorbance change that occurs was monitored continuously at 360 nm, where the extinction is 11,200 M-1 cm-1, with a Spectramax plate reader (Molecular Devices). […] The enzyme concentration was adjusted so as to generate sufficient signal without exceeding the limit for linear initial reaction rates. The same procedure was repeated with two or three concentrations of glyphosate and the data were processed by non-linear regression analysis with GraphPad Prism (graphpad.com) and globally fitted to the Michaelis-Menten equation for competitive inhibition.
To validate that the rapid method yields an accurate estimation of (kcat/KM)*KI, the results were compared with those obtained by full substrate saturation analysis. […]

The target in experiment [2] is T2, Zea mays (maize) EPSPS, native, SEQ ID NO:1 (Table 10: SEQ ID NO:2) (Zea mays, UniProt O24566).
T2 sequence (O24566 with tags, fused parts or gaps): T1 sequence (O24566 with tags, fused parts or gaps)
As to the kind of experiment: EPSPS substrate saturation kinetics (PEP varied, glyphosate inhibition), native maize. Format: biochemical. From the text:
The amino acid sequence of mature Zea mays EPSP synthase (EPSPS) was obtained from GenBank entry CAA44974.1 (NCBI GI No. 1524383; presented herein as SEQ ID NO:2). A nucleotide sequence was created to add an N-terminal methionine and to optimize codon usage for expression in E. coli. The synthetic gene was supplied by a commercial vendor. The gene was cloned into an expression vector that provides a T7 promoter driving expression of the protein. The vector was modified to change a 6×N-terminal histidine tag to a 10×tag. The resulting coding region of the vector yields an expressed protein with the amino acid sequence shown in Table 1 (represented by SEQ ID NO:1). The coding region is preceded by an N-terminal extension represented by SEQ ID NO:3.
Whether protein production was done in BL21(DE3) or with the Tuner AroA knockout, the vector was electroporated into cells and transformants were selected for growth on LB agar containing 100 ug carbennicillin/ml. Cells were grown in Magic Medium, in which induction occurs when the medium becomes depleted of glucose. After 4 hours of growth at 37° C., cells were transferred to 30° C. and grown another 16 hrs. Pelleted cells were lysed with BPER (Pierce) protein extraction reagent containing 0.2 mg/ml lysozyme, 1 mM dithiothreitol, protease inhibitor cocktail (Sigma, bacterial cocktail) and endonuclease. Insoluble cellular debris was removed by centrifugation. EPSPS protein was purified from the soluble protein solution by affinity chromatography on the nickel form of nitrilotriacetic acid (Ni-NTA) resin (Qiagen). Protein concentration was measured by absorbance at 280 nm using an extinction coefficient of 0.676 OD/mg/ml, provided by Vector NTI.
Shikimate-3-phosphate (S3P) was prepared from cultures of Klebsiella pneumonia aroA-(ATCC 25597). Cells from a 500 ml culture grown in 2×YT were used to inoculate 6 L of minimal medium augmented with 55 uM tyrosine, 60 uM phenylalanine, 25 uM tryptophan, 0.1 uM 4-aminobenzoate and 0.1 uM 4-hydroxybenzoate (Weiss et al., 1953. J Amer Chem Soc 75:5572-5576). Accumulation of S3P was monitored by anion exchange HPLC. After about 4 days shaking at 37 C, the concentration reached ˜1 mM. S3P was purified from the culture supernatant by anion exchange chromatography in ammonium bicarbonate at pH 7.3, with gradient elution up to 0.7 M. S3P was cleanly separated from phosphate, which eluted earlier.
EPSPS activity was determined by quantifying the phosphate generated from the EPSPS reaction. Release of inorganic phosphate was coupled to reaction with 2-amino-6-mercapto-7-methylpurine ribonucleoside, catalyzed by purine-nucleoside phosphorylase (M R Webb, Proc. Natl. Acad. Sci. 89:4884-4887, 1992). The absorbance change that occurs was monitored at 360 nm, where the extinction is 11,200 M^−1 cm^−1, with a Spectramax plate reader (Molecular Devices). To determine kinetic parameters, the varied substrate was present at seven concentrations (the eighth being the blank, containing no substrate) ranging from 4 to 400 uM and the unvaried substrate present at saturation. […] Reactions were monitored with a Spectramax plate reader. […]

[3] abbreviates: substrate saturation, Zm native.

Broadly, the Ki is the equilibrium dissociation constant of an inhibitor or competing ligand from its target. Read a high Ki as lower affinity. Turning to `O=C(O)CNCP(=O)(O)O` [glyphosate, N-phosphonomethylglycine], the Ki in experiment [1] and in experiment [2] was 130 nM each time. The “(kcat/KM)*KI” value in experiment [1] (setting [3]) was 12; in experiment [2] (PEP as substrate, glyphosate as inhibitor), 11.8 and 12.

What is called Km is the concentration of substrate that gives half-maximal velocity. `C=C(OP(=O)(O)O)C(=O)O` [PEP, phosphoenolpyruvate]: the kcat in experiment [1] (setting [3]) turned out to be 17.27 s⁻¹; in experiment [2] (PEP varied, S3P saturating, pH 7), 1464 min⁻¹; in experiment [2] (Table 3, unit not given), 1464. Moreover, the Km in experiment [2] (read-out: KM (PEP), Table 3, unit inferred) worked out at 15.7 µM.
